From paper PMC8305768, “Design, Synthesis and Antiparasitic Evaluation of Click Phospholipids” (Molecules, 2021)
Counter-ions that a name gives are not always drawn. Like-named read-outs stand apart in the source and are kept apart here.

Key:
[1] = Cytotoxicity against THP-1 macrophages (MTT); assay type: cell-based; settings: human, PMA-differentiated THP-1 macrophages, read-out: Toxicity CC50 ± SD Or CC50 Interval Estimation
Protocol: The effect of compounds selected compounds on THP-1-derived macrophages was assessed by the colorimetric MTT assay (3-(4,5-dimethylthiazol-2-yl)-2,5-diphenyl tetrazolium bromide). Briefly, 1 × 10^5 THP-1 cells/mL were differentiated into macrophages by addition of 20 ng/mL of phorbol-myristate 13-acetate (PMA, Sigma, Saint Louis, MI, USA) for 18 h, followed by replacement with fresh medium for 24 h. Cells were incubated with 100 µL of compounds ranging from 100 to 1 µM after dilution in the RPMI complete medium containing a maximum amount of 1% DMSO. After incubation for 72 h, the medium was removed and 100 µL of 0.5 mg/mL MTT solution diluted in RPMI was added. Plates were incubated for an additional 4 h to allow viable cells to convert MTT into a purple formazan product. Solubilization of formazan crystals was achieved by the addition of 2-propanol and absorbance was read at 570 nm using a Synergy 2 Multi-Mode Reader (Biotek, Winooski, VT, USA). Cytotoxicity was evaluated by the determination of the CC50 value (drug concentration that reduced the percentage of viable cells in 50%) and calculated by non-linear regression analysis using GraphPad Prism version 8.1.1 for Windows (GraphPad Software, San Diego, CA, USA).

[2] = test system: L. infantum (MHOM/MA/67/ITMAP-263) intracellular amastigotes; assay: Activity against L. infantum MHOM/MA/67/ITMAP-263 intramacrophage amastigotes (luciferase, THP-1); assay type: cell-based, Leishmania infantum; settings: for IC50 / inhibition at 10 µM / inhibition at 1 µM: Leishmania infantum; for IC50: THP-1, 72 h, read-out: L. infantum (MHOM/MA/67/ITMAP-263) Intracellular Amastigotes IC50 ± SD; for inhibition at 10 µM / inhibition at 1 µM: THP-1; for inhibition at 10 µM: read-out: Mean % Inhibition ± SD at 10μM; for inhibition at 1 µM: read-out: Mean % Inhibition ± SD at (1 μM) (converted)
Protocol: A cloned line of L. infantum (MOM/ MA671TMAP263) promastigotes were maintained in RPMI 1640 medium supplemented with 10% heat-inactivated foetal bovine serum (FBS), 2 mM L-glutamine, 20 mM HEPES and 1% Penn/Strep. Maintenance of promastigotes was done in T-25 flasks at 26 °C by subpassage at […] every 5−6 days. L. infantum axenic amastigotes expressing episomal luciferase were maintained in MAA/20 (axenic amastigote medium) at 37 °C under a 5% CO2 environment with subpassages every 5 days. LUC-positive parasites were selected by addition of geneticin sulphate (G418) to the culture at 60 μg/mL.
The efficacy of compounds against L. infantum intracellular amastigotes was determined according to the literature with slight modifications. Briefly, 1 × 10^6 THP-1 cell/mL were seeded in a 96 well flat bottom plate (100 µL/well) and differentiated into macrophages by addition of 20 ng/mL of phorbol-myristate 13-acetate (PMA, Sigma, Saint Louis, MI, USA) for 18 h, followed by replacement with fresh medium for 24 h. Then these cells were infected with luciferase-expressing L. infantum axenic amastigotes in a macrophage:amastigotes ratio of 1:10 for 4 h at 37 °C, 5% CO2. Non-internalized parasites were washed and compounds were added at different concentrations in a final volume of 100 µL. After 72 h of incubation, the media was substituted by 100 µL of PBS. Then of 25 µL of Glo-lysis buffer from the Steady-Glo Luciferase Assay System (Promega, Madison, WI, USA) was added mixed and incubated for 10 min with agitation at 100 rpm. Finally, 30 µL of the Steady-Glo reagent (Promega, Madison, WI, USA) was then added to the plate and was incubated for 15 min with agitation at 100 rpm and then the content of each well was transferred to white-bottom 96-well plates. Luminescence intensity was read using a Synergy 2 Multi-Mode Reader (Biotek, Winooski, VT, USA). The antileishmanial effect was evaluated by the determination of the IC50 value (concentration required to inhibit growth in 50%) and calculated by the non-linear regression analysis using GraphPad Prism version 8.1.1 for Windows (GraphPad Software, San Diego CA, USA).

[3] = target: T1, CYP2C19 (Homo sapiens, UniProt P33261); assay: Cytochrome P450 inhibition assay (P450-Glo) CYP2C19; assay type: in vitro ADME; settings: compounds 10 μM; miltefosine 10 μM or 1 μM
T1 construct: purchased Corning Inc; host or cells: baculovirus-infected insect cells
Text: Cytochrome (CYP) P450 inhibition assay: These assays made use of microsomal preparations of CYP450 (1A2, 2C9, 2C19, 2D6 and 3A4) from baculovirus-infected insect cells (Corning Inc., Corning, NY, USA) and cytochrome c reductase (and cytochrome b5 for CYP450 3A4). For detection of CYP450 activity, the luminescence-based P450-Glo (Promega Corp., Madison, WI, USA) assay system was used that contained a luminogenic CYP450 substrate, lyophilized luciferin detection reagent and reconstitution buffer. The substrates were luciferin derivatives of CYP450-specific substrates that produce (4S)-4,5-dihydro-2-(6-hydroxybenzothiazolyl)-4-thiazolecarboxylic acid (D-luciferin) after cleavage by CYP450 (CYP450 3A4, luciferin-IPA; CYP450 2C19, luciferin-H EGE; CYP450 2C9, luciferin-H; CYP450 2D6, luciferin-ME EGE; CYP450 1A2, luciferin-1A2). CYP450 reactions were initiated by addition of the NADPH regeneration system to the enzyme–substrate mixture with the luciferin detection reagent stopping the reaction and the D-luciferin being converted to oxyluciferin under the production of light being proportional to the CYP450 activity. The CYP450 assays were performed using the Tecan Fluent liquid-handling automation platform (Tecan Group Ltd., Mannedorf, Switzerland) in the 384-well assay format. Compounds were added into an empty 384-well plate (100 nL/well in 1% v/v DMSO) using the Echo 550 Liquid Handler followed by the addition of 5 μL/well of the CYP450/substrate mixture and incubation for 30 min at 37 °C, after which the reaction was initiated by the addition of the 5 μL/well NADPH regeneration system. After a further 30-min incubation at 37 °C, the CYP450 reaction was stopped and the luciferase reaction was simultaneously initiated by addition of 10 μL/well of luciferin detection reagent, followed by an additional 30-min incubation at 37 °C. The luminescence signal was detected using an Infinite M1000 PRO plate reader (Tecan Group Ltd., Mannedorf, Switzerland). The NCs yielded 0% inhibition (1% v/v DMSO) and standard CYP450 specific inhibitors were used as positive controls, yielding 100% inhibition (CYP450 1A2, alpha-naphthoflavone; CYP450 2C9, sulfaphenazole; CYP450 2C19, troglitazone; CYP450 2D6, quinidine; CYP450 3A4, ketoconazole).
Data analysis: The screening data were obtained in triplicate and analysed using ActivityBase (IDBS, Guildford, UK), and outlier elimination in the control wells was performed using the 3-sigma method. Unless stated, dose–response experiments were performed in the 11-point format with the IC50 value, Hill slope, minimum signal and maximum signal for each dose–response curve obtained using a four-parameter logistic fit in the XE module of ActivityBase (IDBS).

[4] = CC50 THP-1 / IC50 L. infantum MHOM/MA/67/ITMAP-263

T1 sequence (P33261 whole entry): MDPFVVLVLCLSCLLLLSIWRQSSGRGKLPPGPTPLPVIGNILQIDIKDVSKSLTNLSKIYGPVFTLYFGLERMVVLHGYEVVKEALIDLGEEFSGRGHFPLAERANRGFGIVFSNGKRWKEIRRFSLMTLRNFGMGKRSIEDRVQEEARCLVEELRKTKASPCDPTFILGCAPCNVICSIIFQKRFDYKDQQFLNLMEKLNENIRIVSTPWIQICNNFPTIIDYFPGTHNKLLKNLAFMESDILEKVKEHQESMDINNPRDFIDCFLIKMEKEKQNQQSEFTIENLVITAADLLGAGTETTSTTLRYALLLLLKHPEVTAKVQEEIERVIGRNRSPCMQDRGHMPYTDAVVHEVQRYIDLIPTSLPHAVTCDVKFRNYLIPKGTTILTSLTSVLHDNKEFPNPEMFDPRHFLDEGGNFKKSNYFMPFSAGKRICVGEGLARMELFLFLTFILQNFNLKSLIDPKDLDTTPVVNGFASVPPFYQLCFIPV

Row | Structure (SMILES) | CC50 at 72 h [1] | Selectivity Index CC50/IC50 [2, 4] | IC50 [2] | inhibition at 10 µM ([2]; 10 μM, 72 h, N.A. = inactive) | % inhibition ± SD at 10 μΜ CYP2C19 [3] | inhibition at 1 µM ([2]; 72 h) | Mean % Inhibition ± SD at 10μM ([2]; 10 μM, 72 h, N.A. = inactive) | Selectivity Index CC50/IC50 [2]
1 | CCCCCc1cn(CCCCCCCCCCCOP(=O)([O-])OCC[N+](C)(C)C)nn1 [Compound 25, 11-(4-pentyl-1H-1,2,3-triazol-1-yl)undecyl (2-(trimethylammonio)ethyl) phosphate inner salt] | > 100 µM | >3 | 34.3 ± 19.4 µM | 32 ± 19% | –32.10% |  |  | 
2 | CCCCCCCCc1noc(CCCCCOP(=O)([O-])OCC[N+](C)(C)C)n1 [Compound 53, 5-(3-octyl-1,2,4-oxadiazol-5-yl)pentyl (2-(trimethylammonio)ethyl) phosphate inner salt] | 12.5 to 25 µM |  |  | 98.4 ± 1% | –17.22% | 34.6% |  | 
3 | C[N+](C)(C)CCOP(=O)([O-])OCCCCCn1cc(CCCCCCCCN)nn1 [Compound 35, 5-(4-(8-aminooctyl)-1H-1,2,3-triazol-1-yl)pentyl (2-(trimethylammonio)ethyl) phosphate inner salt] | > 100 µM |  |  |  | –3.09% |  |  | 
4 | C[N+](C)(C)CCOP(=O)([O-])OCCCCCCCCCCCn1cc(CC2CCCCC2)nn1 [Compound 29, 11-(4-(cyclohexylmethyl)-1H-1,2,3-triazol-1-yl)undecyl (2-(trimethylammonio)ethyl) phosphate inner salt] | > 100 µM |  |  | 43 ± 1% | –28.74% |  |  | 
5 | CCCCCCCCc1noc(CCCCCCCCCCOP(=O)([O-])OCC[N+](C)(C)C)n1 [Compound 54, 10-(3-octyl-1,2,4-oxadiazol-5-yl)decyl (2-(trimethylammonio)ethyl) phosphate inner salt] | > 10 µM | 13.6 | 0.8 ± 0.18 µM | 100.4 ± 1% | 10.43% | 67.1% |  | 
6 | C[N+](C)(C)CCOP(=O)([O-])OCCCCCCCCCCCn1cc(CCCCCCCCC(=O)O)nn1 [Compound 34, 11-(4-(8-carboxyoctyl)-1H-1,2,3-triazol-1-yl)undecyl (2-(trimethylammonio)ethyl) phosphate inner salt] | 50 to 100 µM |  |  | 10 ± 9% | 4.89% |  |  | 
7 | C[N+](C)(C)CCOP(=O)([O-])OCCCCCCCCCCCn1cc(CC2CCCC2)nn1 [Compound 28, 11-(4-(cyclopentylmethyl)-1H-1,2,3-triazol-1-yl)undecyl (2-(trimethylammo nio)ethyl) phosphate inner salt] | > 100 µM |  |  |  | –32.71% |  | inactive | 
8 | C[N+](C)(C)CCOP(=O)([O-])OCCCCCCCCCCCn1cc(CCCCCCCCNC(=O)OCc2ccccc2)nn1 [Compound 32, 11-(4-(8-(((benzyloxy)carbonyl)amino)octyl)-1H-1,2,3-triazol-1-yl)undecyl (2-(trimethylammonio)ethyl) phosphate inner salt] | > 100 µM |  |  | 5 ± 18% |  |  |  | 
9 | C[N+](C)(C)CCCOP(=O)([O-])OCCCCCCCCCCCn1cc(CC2CCCCC2)nn1 [Compound 33, 11-(4-(cyclohexylmethyl)-1H-1,2,3-triazol-1-yl)undecyl (3-(trimethylammonio)propyl) phosphate inner salt] | > 10 µM |  |  | 12 ± 5% | 4.22% |  |  | 
10 | CCCCCCCc1nnc(CCCCCCCCCCOP(=O)([O-])OCC[N+](C)(C)C)o1 [Compound 65, 10-(5-heptyl-1,3,4-oxadiazol-2-yl)decyl (2-(trimethylammonio)ethyl) phosphate inner salt] | 12.5 to 25 µM |  |  | 92.9 ± 5% | –1.75% | 4.8% |  | 
11 | C[N+](C)(C)CCOP(=O)([O-])OCCCCCn1cc(CCCCCCCCNC(=O)OCc2ccccc2)nn1 [Compound 31, 5-(4-(8-(((benzyloxy)carbonyl)amino)octyl)-1H-1,2,3-triazol-1-yl)pentyl (2-(trimethylammonio)ethyl) phosphate inner salt] | > 100 µM |  |  |  | –2.38% |  |  | 
12 | CCCCCCCCCCCCCCCCOP(=O)([O-])OCC[N+](C)(C)C [Miltefosine, hexadecylphosphocholine, reference compound] | 15.9 ± 1.2 µM |  | 3.2 ± 1.4 µM |  | 7.92% |  |  | 4.9
13 | CCCCCCCCCCCc1nnc(CCCCCCCCCCOP(=O)([O-])OCC[N+](C)(C)C)o1 [Compound 66, 2-(trimethylammonio)ethyl (10-(5-undecyl-1,3,4-oxadiazol-2-yl)decyl) phosphate inner salt] | 25 to 50 µM |  |  | 94.2 ± 3% | 23.97% | 3.3% |  | 
14 | CCCCCCCCCCc1cc(CCCCCCCCCCOP(=O)([O-])OCC[N+](C)(C)C)no1 [Compound 41, 10-(5-decylisoxazol-3-yl)decyl (2-(trimethylammonio)ethyl) phosphate inner salt] | 12.5 to 25 µM |  |  | 93.7 ± 10% | 5.65% |  |  | 
